From article PMC8391312 (Biomedicines, 2021)

System: Cav1.2/1.3 channels
Type: cell-based, rat

## [Cl][Cd][Cl] [Cd^2+, CdCl2]
  block of current amplitude: 98 ± 0.8%
